Test results taken from the supplement of paper PMC11208160.

Assay: recombinant UMI read abundance after kanamycin selection (control-corrected) (log10(CPM+1)); higher = more efficient recombination; extreme values may be limits of the assay; sequences stand for … in AGTGCAGAGAAAATCGGCCAGTTTTCTCTGCCTGCAGTCCGCATGCCGTGGGACCCCTTGGGTTCTAACCTGTTGCCTAGATTTATGCAGCGGACTGCCTTTCTCCCAAAGTGATAAACCGG…AGGTTGGTTTCACT; site = the 11-nt donor
Procedure, shortened: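 Values are reported as log10(CPM+1), obtained by converting sequencing counts to CPM, averaging replicates and scaling by control-derived factors. The counts came from recombinant UMIs amplified by PCR across the donor–target junction. These UMIs came from a pooled Escherichia coli screen of donor and donor-binding-loop pairs for the IS621 bridge recombinase, plated with IPTG (0.07 mM) plus kanamycin or left unselected, in two replicates each.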
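Note: IS621 bridge recombinase in Escherichia coli cells against a fixed T5 target plasmid.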

Row | Sequence | recombinant UMI read abundance (log10)
1 | CGATCATCATGGACCGGTTTTCCCGGTAATCCGTATTTGTT (site CGATCATCTAT) | 0.00529
2 | CGATCCACATGGACCGGTTTTCCCGGTAATCCGTATTTGCT (site CGATCATCTAG) | 0
3 | CGATCCACATGGACCGGTTTTCCCGGTAATCCGTATTTGCT (site CGATCCACTAG) | 2.75
4 | CGATCCACATGGACCGGTTTTCCCGGTAATCCGTATTTGTT (site CGATCAACTAA) | 0.00541
5 | CGATCCACATGGACCGGTTTTCCCGGTAATCCGTATTTGTT (site CGATCCACTAA) | 2.11
6 | CGATCCACATGGACCGGTTTTCCCGGTAATCCGTATTTGTT (site CGATCGACTAA) | 0.00891
7 | CGATCCACATGGACCGGTTTTCCCGGTAATCCGTATTTGTT (site CGATCTACTAA) | 0.00733
8 | CGATCGTCATGGACCGGTTTTCCCGGTAATCCGTATTTGCC (site CGATCATCTAG) | 0
9 | CGATCGTCATGGACCGGTTTTCCCGGTAATCCGTATTTGCC (site CGATCGTCTGG) | 1.05
10 | CGATCTTCATGGACCGGTTTTCCCGGTAATCCGTATTTGCT (site CGATCATCTAG) | 0
11 | CGATCTTCATGGACCGGTTTTCCCGGTAATCCGTATTTGCT (site CGATCCTCTAG) | 0.00985
12 | CGATCTTCATGGACCGGTTTTCCCGGTAATCCGTATTTGCT (site CGATCGTCTAG) | 0.00569
13 | CGATCTTCATGGACCGGTTTTCCCGGTAATCCGTATTTGCT (site CGATCTTCTAG) | 0.601
14 | CGATGTGCATGGACCGGTTTTCCCGGTAATCCGTATTTGGC (site CGATGTGCTGC) | 3.02
15 | CGATGTTCATGGACCGGTTTTCCCGGTAATCCGTATTTGTC (site CGATGTTCTGA) | 2.98
16 | CGATTATCATGGACCGGTTTTCCCGGTAATCCGTATTTGCT (site CGATAATCTAG) | 0.446
17 | CGATTATCATGGACCGGTTTTCCCGGTAATCCGTATTTGCT (site CGATCATCTAG) | 0
18 | CGATTATCATGGACCGGTTTTCCCGGTAATCCGTATTTGCT (site CGATGATCTAG) | 0
19 | CGATTATCATGGACCGGTTTTCCCGGTAATCCGTATTTGCT (site CGATTATCTAG) | 2.28
20 | CGATTCCCATGGACCGGTTTTCCCGGTAATCCGTATTTGCT (site CAATTCCCTAG) | 0.32
21 | CGATTCCCATGGACCGGTTTTCCCGGTAATCCGTATTTGCT (site CCATTCCCTAG) | 1.03
22 | CGATTCCCATGGACCGGTTTTCCCGGTAATCCGTATTTGCT (site CGATTCCCTAG) | 0.704
23 | CGATTCCCATGGACCGGTTTTCCCGGTAATCCGTATTTGCT (site CTATTCCCTAG) | 0
24 | CGATTGGCATGGACCGGTTTTCCCGGTAATCCGTATTTGAT (site CGATTGGCTAT) | 2.26
25 | CGCAACACATGGACCGGTTTTCCCGGTAATCCGTATTTGCG (site CGCAACACTCG) | 1.19

Row | Sequence | recombinant UMI read abundance (log10)
26 | CGCAACCCATGGACCGGTTTTCCCGGTAATCCGTATTTGTT (site CGCAACCCTAA) | 0.717
27 | CGCAACCCATGGACCGGTTTTCCCGGTAATCCGTATTTGTT (site CGGAATCCTAA) | 0
28 | CGCAATCCATGGACCGGTTTTCCCGGTAATCCGTATTTGGT (site CGCAATCCTAC) | 0.135
29 | CGCAATCCATGGACCGGTTTTCCCGGTAATCCGTATTTGGT (site CGGAATCCTAA) | 0
30 | CGCACCGCATGGACCGGTTTTCCCGGTAATCCGTATTTGCA (site CGCACCGCTTG) | 2.35
31 | CGCATTACATGGACCGGTTTTCCCGGTAATCCGTATTTGCA (site CGCATTACTTG) | 1.64
32 | CGCATTTCATGGACCGGTTTTCCCGGTAATCCGTATTTGAG (site CGCATTTCTCT) | 0.426
33 | CGCCACTCATGGACCGGTTTTCCCGGTAATCCGTATTTGCG (site CGCCACTCTCG) | 2.05
34 | CGCCCGACATGGACCGGTTTTCCCGGTAATCCGTATTTGCC (site CGCCCGACTGG) | 2.5
35 | CGCCCTACATGGACCGGTTTTCCCGGTAATCCGTATTTGAG (site CACCCTACTCT) | 0.475
36 | CGCCCTACATGGACCGGTTTTCCCGGTAATCCGTATTTGAG (site CCCCCTACTCT) | 0.0131
37 | CGCCCTACATGGACCGGTTTTCCCGGTAATCCGTATTTGAG (site CGCCCTACTCT) | 1.44
38 | CGCCCTACATGGACCGGTTTTCCCGGTAATCCGTATTTGAG (site CTCCCTACTCT) | 0.0151
39 | CGCCGCACATGGACCGGTTTTCCCGGTAATCCGTATTTGCT (site CGCCGAACTAG) | 0
40 | CGCCGCACATGGACCGGTTTTCCCGGTAATCCGTATTTGCT (site CGCCGCACTAG) | 2.18
41 | CGCCGCACATGGACCGGTTTTCCCGGTAATCCGTATTTGCT (site CGCCGGACTAG) | 0.00439
42 | CGCCGCACATGGACCGGTTTTCCCGGTAATCCGTATTTGCT (site CGCCGTACTAG) | 0
43 | CGCCGGACATGGACCGGTTTTCCCGGTAATCCGTATTTGCT (site CGCCGAACTAG) | 2.52
44 | CGCCGGACATGGACCGGTTTTCCCGGTAATCCGTATTTGCT (site CGCCGCACTAG) | 0.00459
45 | CGCCGGACATGGACCGGTTTTCCCGGTAATCCGTATTTGCT (site CGCCGGACTAG) | 1.82
46 | CGCCGGACATGGACCGGTTTTCCCGGTAATCCGTATTTGCT (site CGCCGTACTAG) | 0
47 | CGCCGTACATGGACCGGTTTTCCCGGTAATCCGTATTTGCT (site AGCCGTACTAG) | 0.192
48 | CGCCGTACATGGACCGGTTTTCCCGGTAATCCGTATTTGCT (site CACCGTACTAG) | 0.33
49 | CGCCGTACATGGACCGGTTTTCCCGGTAATCCGTATTTGCT (site CCCCGTACTAG) | 0.907
50 | CGCCGTACATGGACCGGTTTTCCCGGTAATCCGTATTTGCT (site CGACGTACTAG) | 0.00883

Row | Sequence | recombinant UMI read abundance (log10)
51 | CGCCGTACATGGACCGGTTTTCCCGGTAATCCGTATTTGCT (site CGCAGTACTAG) | 0.331
52 | CGCCGTACATGGACCGGTTTTCCCGGTAATCCGTATTTGCT (site CGCCATACTAG) | 0.922
53 | CGCCGTACATGGACCGGTTTTCCCGGTAATCCGTATTTGCT (site CGCCCTACTAG) | 0.301
54 | CGCCGTACATGGACCGGTTTTCCCGGTAATCCGTATTTGCT (site CGCCGAACTAG) | 0
55 | CGCCGTACATGGACCGGTTTTCCCGGTAATCCGTATTTGCT (site CGCCGCACTAG) | 0.796
56 | CGCCGTACATGGACCGGTTTTCCCGGTAATCCGTATTTGCT (site CGCCGGACTAG) | 0
57 | CGCCGTACATGGACCGGTTTTCCCGGTAATCCGTATTTGCT (site CGCCGTACTAA) | 0.0116
58 | CGCCGTACATGGACCGGTTTTCCCGGTAATCCGTATTTGCT (site CGCCGTACTAC) | 0.00604
59 | CGCCGTACATGGACCGGTTTTCCCGGTAATCCGTATTTGCT (site CGCCGTACTAG) | 1.59
60 | CGCCGTACATGGACCGGTTTTCCCGGTAATCCGTATTTGCT (site CGCCGTACTAT) | 0.0196
61 | CGCCGTACATGGACCGGTTTTCCCGGTAATCCGTATTTGCT (site CGCCGTACTCG) | 0.111
62 | CGCCGTACATGGACCGGTTTTCCCGGTAATCCGTATTTGCT (site CGCCGTACTGG) | 0
63 | CGCCGTACATGGACCGGTTTTCCCGGTAATCCGTATTTGCT (site CGCCGTACTTG) | 0.00335
64 | CGCCGTACATGGACCGGTTTTCCCGGTAATCCGTATTTGCT (site CGCCGTCCTAG) | 0
65 | CGCCGTACATGGACCGGTTTTCCCGGTAATCCGTATTTGCT (site CGCCGTGCTAG) | 0.065
66 | CGCCGTACATGGACCGGTTTTCCCGGTAATCCGTATTTGCT (site CGCCGTTCTAG) | 0
67 | CGCCGTACATGGACCGGTTTTCCCGGTAATCCGTATTTGCT (site CGCCTTACTAG) | 0
68 | CGCCGTACATGGACCGGTTTTCCCGGTAATCCGTATTTGCT (site CGCGGTACTAG) | 0
69 | CGCCGTACATGGACCGGTTTTCCCGGTAATCCGTATTTGCT (site CGCTGTACTAG) | 0
70 | CGCCGTACATGGACCGGTTTTCCCGGTAATCCGTATTTGCT (site CGGCGTACTAG) | 0.0034
71 | CGCCGTACATGGACCGGTTTTCCCGGTAATCCGTATTTGCT (site CGTCGTACTAG) | 0
72 | CGCCGTACATGGACCGGTTTTCCCGGTAATCCGTATTTGCT (site CTCCGTACTAG) | 0
73 | CGCCGTACATGGACCGGTTTTCCCGGTAATCCGTATTTGCT (site GGCCGTACTAG) | 0.00569
74 | CGCCGTACATGGACCGGTTTTCCCGGTAATCCGTATTTGCT (site TGCCGTACTAG) | 0.0708
75 | CGCCGTACATGGACCGGTTTTCCCGGTAATCCGTATTTGTT (site CGCCGTACTAA) | 1.23
